Test results published in patent US10092657B2, “Opsonized β-glucan preparations and methods” (Biothera, Inc., priority 2011, dated 2018).

Columns and labels:
human neutrophils [1] = experiment: Binding of DTAF-labeled PGG β-glucan to human neutrophils, with excess unlabeled competitor; assay type: cell-based; conditions: 10 mg/mL unlabeled competitor; 25 μg/mL DTAF-labeled β-glucan
Experimental: In early optimization experiments, neutrophils, monocytes, and T cells were identified by staining with fluorescently labeled anti-CD 15, anti-CD 14, or anti-CD3 Abs, respectively. Events were collected on a LSRII flow cytometer (BD Biosciences, San Jose, Calif.) and analysis was performed using FLOWJO (Tree Star, Ashland, Oreg.). For assessing binding of DTAF-labeled PGG β-glucan to human neutrophils, 25 βg/mL, 100 μg/mL, or 400 μg/mL of labeled β-glucan was added to neutrophils resuspended in RPMI/10% serum, incubated in a 37° C., 5% CO2 humidified incubator for one hour, washed twice with cold FACS buffer, and fixed with 1% paraformaldehyde. Surface binding of DTAF-conjugated β-glucan was subsequently assessed by flow cytometric analysis.

human monocytes [2] = experiment: Binding studies on the role of complement proteins in serum, monocytes; assay type: cell-based
Experimental: (§1) Heat-inactivated (HI) serum was prepared by incubating serum in a 56° C. water bath for 30 minutes. […] Treatment of serum with methylamine (MA) was done by incubating serum with 0.67% of methylamine for 2.5 hours at 37° C., followed by three washes with DPBS using Amicon centrifugal filter unit with a 3K MW cut-off (Millipore, Billerica, Mass.). DPBS-treated serum was prepared in the same manner and used as control serum for MA-treated serum. For blocking of factor D in the serum, 166-32 at concentration 20 μg/mL was incubated with serum on ice for 30 minutes, and then used for binding studies. For binding experiments in the presence of EGTA or MgEGTA, serum was incubated with 10 mM EGTA with or without 10 mM MgCl2 for 10 minutes at room temperature. The untreated and EGTA/MgEGTA-treated serum was then used to pre-treat PGG and perform binding studies as described earlier.

T-cells = experiment: Binding of PGG β-glucan to T-cells within PBMC (BfD IV staining, flow cytometry); assay type: cell-based, human; conditions: 100, 200, 400 μg/mL; 10% autologous serum; 37° C.; two hours
Experimental: Enriched neutrophils or PBMC were resuspended at 1×10^6 cells/mL in RPMI 1640 supplemented with 10% serum. PGG β-glucan at hexose concentrations 100 μg/mL, 200 μg/mL, or 400 μg/mL were added to neutrophils or PBMC and incubated in a 37° C., 5% CO2 humidified incubator for two hours. After incubation, cells were washed twice with FACS buffer (HBSS supplemented with 1% FBS and 0.1% sodium azide) to remove any unbound β-glucan, and subsequently treated with Fc block (Miltenyi Biotec, Auburn, Calif.). After the Fc block step, cells were stained with the BfD IV Ab for 30 minutes at 4° C. and washed twice with cold FACS buffer. Cells were then incubated with FITC-conjugated F(ab′)2 goat anti-mouse IgM for 30 minutes at 4° C. and washed once with cold FACS buffer before fixing with 1% paraformaldehyde.
In early optimization experiments, neutrophils, monocytes, and T cells were identified by staining with fluorescently labeled anti-CD 15, anti-CD 14, or anti-CD3 Abs, respectively. […] Surface binding of DTAF-conjugated β-glucan was subsequently assessed by flow cytometric analysis. To determine receptor-specific binding, binding of 25 μg/mL of DTAF-labeled PGG β-glucan was assessed by incubating the labeled β-glucan with the cells in the presence of 10 mg/mL of unlabeled PGG β-glucan or dextran.

human monocytes [3] = experiment: iC3b staining on PGG β-glucan-bound monocytes (flow cytometry); assay type: cell-based; conditions: 100 μg/mL; 10% serum; 37° C.; two hours
Text: (§2) Binding of PGG β-glucan to neutrophils and PBMC was done as above. iC3b deposition on these cells was detected by staining with a neo-epitope specific anti-iC3b Ab and PE-conjugated goat anti-mouse IgG and analyzing by flow cytometry.

iC3b = biological target: T1, iC3b (Homo sapiens, UniProt P01024); experiment: Immunoprecipitation of PGG β-glucan with BfD IV and detection of pulled-down iC3b; assay type: binding
T1 construct: from tissue
Experimental: PGG β-glucan or dextran at concentration 60-80 mg/mL was incubated with regular or HI serum at 1:10 volume ratio for 30 minutes in a 37° C. water bath. BfD IV Ab was added to the serum/β-glucan mixture and incubated at room temperature for additional 30 minutes. Magnetic beads conjugated with rat anti-mouse IgM (DYNABEADS, Invitrogen, Camarillo, Calif.) were washed three times with DPBS and incubated with serum-PGG β-glucan-BfD IV mixture for another 30 minutes at room temperature. The beads were separated magnetically and iC3b pulled-down along with immunoprecipitated PGG was probed using FITC-conjugated complement C3 Ab by flow cytometer.

human neutrophils [4] = experiment: iC3b staining on PGG β-glucan-bound neutrophils (flow cytometry, confocal microscopy); assay type: cell-based
Experimental: as §2
Enriched neutrophils, resuspended at 1×10^6 cells/mL in either RPMI supplemented with 20% serum or heat-inactivated serum, were mixed with PGG β-glucan before being applied to a 10 mm glass cover slip placed in the well of a 24-well plate. The plate was incubated in a 37° C., humidified 5% CO2 incubator for one hour. Unbound cells and PGG β-glucan were removed by washing with warmed PBS, and bound cells were subsequently fixed in 1% formaldehyde at room temp for 15 minutes. Cells were blocked with FCR blocking agent prior to staining with BFD IV and anti-iC3b monoclonal antibody for 30 minutes at 4° C., and followed by the secondary staining antibodies Cy5-conjugated goat anti-mouse IgM and Cy3-conjugated goat anti-mouse IgG at 4° C. for 30 minutes. Cells were penneabilized with 0.1% ice-cold TritonX-100 for three minutes on ice, stained with DAPI on ice for five minutes before mounting onto slides. Images were analyzed and acquired with Olympus FluoView 1000 IX2 Inverted confocal microscope. Images were adjusted equally in Adobe Photoshop (Adobe Systems Inc., San Jose, Calif.).

human neutrophils [5] = experiment: Binding studies on the role of complement proteins in serum, neutrophils; assay type: cell-based
Experimental: as §1

T1 sequence (P01024 749-1303 limits assumed): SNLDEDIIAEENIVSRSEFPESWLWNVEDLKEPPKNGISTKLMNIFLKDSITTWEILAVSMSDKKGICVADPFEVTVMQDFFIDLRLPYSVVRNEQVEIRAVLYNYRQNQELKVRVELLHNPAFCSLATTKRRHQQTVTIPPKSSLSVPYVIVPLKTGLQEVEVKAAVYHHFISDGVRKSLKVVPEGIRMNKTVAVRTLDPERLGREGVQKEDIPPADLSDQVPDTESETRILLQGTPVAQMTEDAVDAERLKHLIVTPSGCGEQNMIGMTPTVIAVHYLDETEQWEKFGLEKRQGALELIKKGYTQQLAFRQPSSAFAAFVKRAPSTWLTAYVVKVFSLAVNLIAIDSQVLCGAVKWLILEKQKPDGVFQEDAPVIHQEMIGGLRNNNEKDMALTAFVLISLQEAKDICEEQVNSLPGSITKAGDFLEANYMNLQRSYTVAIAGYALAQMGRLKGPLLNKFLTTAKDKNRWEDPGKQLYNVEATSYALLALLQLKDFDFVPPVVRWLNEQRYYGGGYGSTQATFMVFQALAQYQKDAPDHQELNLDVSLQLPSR
T1 sequence (P01024 23-667 partner limits assumed): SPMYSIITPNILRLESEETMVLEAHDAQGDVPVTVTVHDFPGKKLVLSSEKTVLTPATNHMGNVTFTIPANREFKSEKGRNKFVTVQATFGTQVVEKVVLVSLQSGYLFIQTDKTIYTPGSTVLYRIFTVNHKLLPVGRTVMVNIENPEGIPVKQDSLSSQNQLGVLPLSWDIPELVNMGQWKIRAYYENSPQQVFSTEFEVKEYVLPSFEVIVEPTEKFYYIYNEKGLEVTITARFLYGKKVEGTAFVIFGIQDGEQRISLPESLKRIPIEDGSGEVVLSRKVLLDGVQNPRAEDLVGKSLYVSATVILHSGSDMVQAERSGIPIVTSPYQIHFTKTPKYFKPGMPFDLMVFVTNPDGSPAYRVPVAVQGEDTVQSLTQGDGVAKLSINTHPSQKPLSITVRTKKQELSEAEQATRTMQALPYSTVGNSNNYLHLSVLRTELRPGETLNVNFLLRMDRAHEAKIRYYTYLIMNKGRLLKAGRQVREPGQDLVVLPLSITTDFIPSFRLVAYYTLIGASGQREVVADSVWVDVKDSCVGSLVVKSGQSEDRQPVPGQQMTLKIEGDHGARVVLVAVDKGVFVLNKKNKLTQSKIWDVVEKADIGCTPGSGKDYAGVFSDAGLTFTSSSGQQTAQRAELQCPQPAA
T1 sequence (P01024 1321-1663 partner limits assumed): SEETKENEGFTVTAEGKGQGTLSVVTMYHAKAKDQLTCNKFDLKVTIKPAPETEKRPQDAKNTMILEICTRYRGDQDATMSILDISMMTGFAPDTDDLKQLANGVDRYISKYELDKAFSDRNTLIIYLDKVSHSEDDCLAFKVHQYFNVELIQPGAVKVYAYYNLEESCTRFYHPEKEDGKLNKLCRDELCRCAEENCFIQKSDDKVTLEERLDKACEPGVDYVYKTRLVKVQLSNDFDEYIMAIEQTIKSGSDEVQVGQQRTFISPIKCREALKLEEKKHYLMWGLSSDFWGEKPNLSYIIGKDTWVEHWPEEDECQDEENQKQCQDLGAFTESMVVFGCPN

Substance: β(1,6)-[poly-1,3)-D-glucopyranosyl]-poly-β(1,3)-D-glucopyranose [PGG β-glucan]
- Blocking of DTAF-labeled β-glucan staining by excess unlabeled glucan (human neutrophils [1]): blocked by excess unlabeled β-glucan
- Binding in the presence of heat inactivated (HI) serum (human monocytes [2]; 10% HI serum vs regular serum, 100 μg/mL): abrogated
- Average percentage of binding inhibition in HI serum (human monocytes [2]; based on MFI, five donors): 90%
- Range of percentage of binding inhibition in HI serum (human monocytes [2]; based on MFI, five donors): 81-100%
- Binding (MFI and percentage of BfD IV positive cells) (T-cells): not to T-cells
- iC3b staining on cells incubated with β-glucan vs serum alone (human monocytes [3]): increased staining of iC3b
- iC3b pulled down with BfD IV immunoprecipitate (iC3b; glucan incubated with HI serum): no iC3b was detected
- iC3b pulled down with BfD IV immunoprecipitate (iC3b; glucan incubated with regular serum): iC3b protein was pulled-down
- iC3b staining on cells incubated with β-glucan vs serum alone (human neutrophils [4]; 200 μg/mL, 10% serum, 37° C., two hours): increased staining of iC3b
- Co-localization of bound glucan and iC3b (confocal microscopy) (human neutrophils [4]; BfD IV and anti-iC3b double staining): co-localized
- Binding in the presence of heat inactivated (HI) serum (human neutrophils [5]; 10% HI serum vs regular serum, 200 μg/mL): abrogated
- Average percentage of binding inhibition in HI serum (human neutrophils [5]; based on MFI, five donors): 89%
- Range of percentage of binding inhibition in HI serum (human neutrophils [5]; based on MFI, five donors): 71-100%
